Source: ChEMBL document CHEMBL3784926, “Concise total synthesis of water soluble metatacarboline A, C, D, E and F and its anticancer activity” (Eur J Med Chem, 2016)
≈ marks a conversion by molar mass, not a printed value. Calls of active or inactive are those of the source. The rule behind the calls is not given here.

Columns and labels:
[1] = system: C6; assay: Antiproliferative activity against rat C6 cells assessed as cell viability after 24 hrs by MTT assay; type: functional, cell-based; settings: for IC50: C6, 24 h
[2] = Solubility of the compound in water after 5 mins; type: physicochemical
[3] = system: C6; assay: Cell cycle arrest in rat C6 cells assessed as accumulation at G2/M phase at 40 uM after 24 hrs by propidium iodide staining based flow cytometric analysis (reference value: 20.2%); type: functional
[4] = system: C6; assay: Cell cycle arrest in rat C6 cells assessed as accumulation at G2/M phase at 120 uM after 24 hrs by propidium iodide staining based flow cytometric analysis (reference value: 20.2%); type: functional
[5] = system: C6; assay: Cell cycle arrest in rat C6 cells assessed as accumulation at G2/M phase at 200 uM after 24 hrs by propidium iodide staining based flow cytometric analysis (reference value: 20.2%); type: functional
[6] = system: C6; assay: Cell cycle arrest in rat C6 cells assessed as accumulation at G2/M phase at 400 uM after 24 hrs by propidium iodide staining based flow cytometric analysis (reference value: 20.2%); type: functional
[7] = Solubility of the compound in water at 0.01 g after 5 mins; type: physicochemical
[8] = system: C6; assay: Antiproliferative activity against rat C6 cells assessed as inhibition of colony forming ability at 200 uM after 7 days by methylene blue staining; values are per cent of control; settings: C6, 168 h
[9] = system: C6; assay: Antiproliferative activity against rat C6 cells assessed as inhibition of colony forming ability at 400 uM after 7 days by methylene blue staining; values are per cent of control; settings: C6, 168 h
[10] = system: C6; assay: Antiproliferative activity against rat C6 cells assessed as inhibition of colony forming ability at 600 uM after 7 days by methylene blue staining; values are per cent of control; settings: C6, 168 h
[11] = system: C6; assay: Cell cycle arrest in rat C6 cells assessed as accumulation at sub G0/G1 phase at 100 uM after 24 hrs by propidium iodide staining based flow cytometric analysis (reference value: 0.6 %); type: functional
[12] = system: C6; assay: Cell cycle arrest in rat C6 cells assessed as accumulation at sub G0/G1 phase at 200 uM after 24 hrs by propidium iodide staining based flow cytometric analysis (reference value: 0.6 %); type: functional
[13] = system: C6; assay: Cell cycle arrest in rat C6 cells assessed as accumulation at sub G0/G1 phase at 400 uM after 24 hrs by propidium iodide staining based flow cytometric analysis (reference value: 0.6 %); type: functional
[14] = system: C6; assay: Induction of apoptosis in rat C6 cells assessed as DNA fragmentation at 300 uM after 24 hrs by TUNEL assay relative to control; type: functional, cell-based
[15] = system: C6; assay: Induction of apoptosis in rat C6 cells assessed as decrease in Bcl2 expression at 100 to 600 uM after 24 hrs by Western blot analysis; type: functional, cell-based
[16] = system: C6; assay: Induction of apoptosis in rat C6 cells assessed as decrease in Bclxl expression at 100 to 600 uM after 24 hrs by Western blot analysis; type: functional, cell-based
[17] = system: C6; assay: Induction of apoptosis in rat C6 cells assessed as decrease in pro-caspase 8 expression at 100 to 600 uM after 24 hrs by Western blot analysis; type: functional, cell-based
[18] = system: C6; assay: Induction of apoptosis in rat C6 cells assessed as cleaved caspase 3 at 100 to 600 uM after 24 hrs by Western blot analysis; type: functional, cell-based
[19] = system: C6; assay: Induction of apoptosis in rat C6 cells assessed as PARP cleavage at 100 to 600 uM after 24 hrs by Western blot analysis; type: functional, cell-based
[20] = system: C6; assay: Induction of apoptosis in rat C6 cells assessed as upregulation of p53 expression at 100 to 600 uM after 24 hrs by Western blot analysis; type: functional, cell-based
[21] = system: C6; assay: Antiproliferative activity against rat C6 cells assessed as inhibition of colony forming ability at 40 uM after 7 days by methylene blue staining; values are per cent of control; settings: C6, 168 h
[22] = system: C6; assay: Antiproliferative activity against rat C6 cells assessed as inhibition of colony forming ability at 120 uM after 7 days by methylene blue staining; values are per cent of control; settings: C6, 168 h
[23] = system: C6; assay: Antiproliferative activity against rat C6 cells assessed as inhibition of colony forming ability at 800 uM after 7 days by methylene blue staining; values are per cent of control; settings: C6, 168 h

Question: Which Activity [1] does the source give for `O=C(O)c1cc2c([nH]c3ccccc32)c(CCC(=O)N2CCC[C@H]2C(=O)O)n1` here?
Answer: Dose-dependent effect

Question: What about the solubility at 5 min [2] of the same compound?
Answer: 10000 µg/mL (≈ 26.2 mM)

Question: Which Activity [1] does the source give for `CC(C)[C@H](NC(=O)c1cc2c([nH]c3ccccc32)c(CCC(=O)N2CCC[C@H]2C(=O)O)n1)C(=O)O` here?
Answer: Dose-dependent effect

Question: And the IC50 [1]?
Answer: 250 µM

Question: What about the Activity [3] of the same compound?
Answer: 24.4%

Question: What about the Activity [4] of the same compound?
Answer: 22.8%

Question: And the Activity [5]?
Answer: 18.3%

Question: What about the Activity [6] of the same compound?
Answer: 23.9%

Question: And the solubility [7]?
Answer: soluble

Question: What about the colony formation (% of control) at 200 µM [8] of the same compound?
Answer: 55%

Question: What about the colony formation (% of control) at 400 µM [9] of the same compound?
Answer: 35%

Question: And the colony formation (% of control) at 600 µM [10]?
Answer: 15%

Question: Which Activity [1] does the source give for `O=C(N[C@@H](CO)C(=O)O)c1cc2c([nH]c3ccccc32)c(CCC(=O)N2CCC[C@H]2C(=O)O)n1` here?
Answer: Dose-dependent effect

Question: What about the solubility [7] of the same compound?
Answer: soluble

Question: For `C[C@H](O)[C@H](NC(=O)c1cc2c([nH]c3ccccc32)c(CCC(=O)N2CCC[C@H]2C(=O)O)n1)C(=O)O`, which Activity [1] is on record?
Answer: Dose-dependent effect

Question: And the IC50 [1]?
Answer: 150 µM

Question: What about the Activity [11] of the same compound?
Answer: 4.7%

Question: And the Activity [12]?
Answer: 43.7%

Question: And the Activity [13]?
Answer: 95.1%

Question: And the Activity [14]?
Answer: Active

Question: What about the Activity [15] of the same compound?
Answer: Active

Question: And the Activity [16]?
Answer: Active

Question: What about the Activity [17] of the same compound?
Answer: Active

Question: What about the Activity [18] of the same compound?
Answer: Active

Question: What about the Activity [19] of the same compound?
Answer: Active

Question: What about the Activity [20] of the same compound?
Answer: Active

Question: And the solubility [7]?
Answer: soluble

Question: What about the colony formation (% of control) at 40 µM [21] of the same compound?
Answer: 85%

Question: What about the colony formation (% of control) at 120 µM [22] of the same compound?
Answer: 75%

Question: What about the colony formation (% of control) at 200 µM [8] of the same compound?
Answer: 45%

Question: What about the colony formation (% of control) at 400 µM [9] of the same compound?
Answer: 25%

Question: And the colony formation (% of control) at 800 µM [23]?
Answer: 5%

Question: For `C[C@H](NC(=O)c1cc2c([nH]c3ccccc32)c(CCC(=O)N2CCC[C@H]2C(=O)O)n1)C(=O)O`, which Activity [1] is on record?
Answer: Dose-dependent effect

Question: And the solubility [7]?
Answer: soluble
